biological target: T1, BTK (Homo sapiens, UniProt Q06187); assay: BTK degradation assay using the HiBiT Method (Nano-Glo HiBiT Lytic Assay, GM01501.3 cells); assay type: cell-based; settings: HiBiT Degradation on GM01501.3 BTK @ 6 hours
T1 construct: The GM01501.3 cell line endogenously expresses BTK with a HiBiT fusion tag via CRISPR knock-in at its C-terminal region; endogenous in cells; host or cells: GM01501.3 (GM01501 cells engineered by CRISPR knock-in of HiBiT at the BTK locus)
Summary of the method: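 Degradation read-out: HiBiT luminescence after lytic reagent addition, giving DC50. Compounds dosed from 10 μM in 11 half-log steps (duplicate) onto GM01501.3 cells, whose endogenous BTK carries a C-terminal HiBiT knock-in tag; 6 h exposure, 37 °C, 5% CO2.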

T1 sequence (Q06187 whole entry, the tested form may be a part): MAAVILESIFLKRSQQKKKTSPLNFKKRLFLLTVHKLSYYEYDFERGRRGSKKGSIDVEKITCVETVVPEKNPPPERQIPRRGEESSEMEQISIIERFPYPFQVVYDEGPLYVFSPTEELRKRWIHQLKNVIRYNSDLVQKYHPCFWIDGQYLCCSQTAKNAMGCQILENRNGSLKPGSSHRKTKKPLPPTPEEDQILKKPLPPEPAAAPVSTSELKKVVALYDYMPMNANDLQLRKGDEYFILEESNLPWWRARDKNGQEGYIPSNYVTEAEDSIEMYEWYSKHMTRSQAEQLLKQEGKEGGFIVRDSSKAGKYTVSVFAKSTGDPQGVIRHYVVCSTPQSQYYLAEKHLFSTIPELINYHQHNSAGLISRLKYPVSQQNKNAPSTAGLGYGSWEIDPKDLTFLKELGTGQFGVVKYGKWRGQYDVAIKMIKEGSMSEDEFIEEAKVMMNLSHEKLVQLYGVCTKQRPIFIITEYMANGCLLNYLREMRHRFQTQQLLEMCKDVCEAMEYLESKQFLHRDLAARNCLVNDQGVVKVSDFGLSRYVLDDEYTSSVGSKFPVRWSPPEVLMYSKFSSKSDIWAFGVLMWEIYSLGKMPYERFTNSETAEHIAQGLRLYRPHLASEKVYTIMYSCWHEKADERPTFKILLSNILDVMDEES

SMILES | DC50
Cc1cc(-c2ncnn3cc(N4CCN(C(=O)C5CCOC5CNC(=O)c5ccc(OC6CCC(=O)NC6=O)cc5)CC4)cc23)ccc1CNC(=O)c1noc(C(C)(C)C)n1 (centres unmarked) [Example 187, 5-(tert-butyl)-N-(4-(6-(4-(2-((4-((2,6-dioxopiperidin-3-yl)oxy)benzamido)methyl)tetrahydrofuran-3-carbonyl)piperazin-1-yl)pyrrolo[2,1-f][1,2,4]triazin-4-yl)-2-methylbenzyl)-1,2,4-oxadiazole-3-carboxamide] | < 100 nM
Cc1cc(-c2ncnn3cc(N4CCN(C(=O)[C@@H]5CCC[C@H](NC(=O)c6ccc(OC7CCC(=O)NC7=O)cc6)C5)CC4)cc23)ccc1CNC(=O)c1noc(C(C)(C)C)n1 (stereo partly drawn) [Example 188, 5-(tert-butyl)-N-(4-(6-(4-((1R,3S)-3-(4-((2,6-dioxopiperidin-3-yl)oxy)benzamido)cyclohexane-1-carbonyl)piperazin-1-yl)pyrrolo[2,1-f][1,2,4]triazin-4-yl)-2-methylbenzyl)-1,2,4-oxadiazole-3-carboxamide] | < 100 nM
Cc1cc(-c2ncnn3cc(N4CCN(C(=O)c5ncoc5CNC(=O)c5ccc(OC6CCC(=O)NC6=O)cc5)CC4)cc23)ccc1CNC(=O)c1noc(C(C)(C)C)n1 (centres unmarked) [Example 189, 5-(tert-butyl)-N-(4-(6-(4-(5-((4-((2,6-dioxopiperidin-3-yl)oxy)benzamido)methyl)oxazole-4-carbonyl)piperazin-1-yl)pyrrolo[2,1-f][1,2,4]triazin-4-yl)-2-methylbenzyl)-1,2,4-oxadiazole-3-carboxamide] | < 100 nM
Cc1cc(-c2ncnn3cc(N4CCN(C(=O)CC5CC6(CO5)CN(C(=O)c5ccc(OC7CCC(=O)NC7=O)cc5)C6)CC4)cc23)ccc1CNC(=O)c1noc(C(C)(C)C)n1 (centres unmarked) [Example 190, 5-(tert-butyl)-N-(4-(6-(4-(2-(2-(4-((2,6-dioxopiperidin-3-yl)oxy)benzoyl)-6-oxa-2-azaspiro[3.4]octan-7-yl)acetyl)piperazin-1-yl)pyrrolo[2,1-f][1,2,4]triazin-4-yl)-2-methylbenzyl)-1,2,4-oxadiazole-3-carboxamide] | < 100 nM
Cc1cc(-c2ncnn3cc(N4CCN(C(=O)C5CCN(C(=O)c6ccc(OC7CCC(=O)NC7=O)cc6)C56CCC6)CC4)cc23)ccc1CNC(=O)c1noc(C(C)(C)C)n1 (centres unmarked) [Example 191, 5-(tert-butyl)-N-(4-(6-(4-(5-(4-((2,6-dioxopiperidin-3-yl)oxy)benzoyl)-5-azaspiro[3.4]octane-8-carbonyl)piperazin-1-yl)pyrrolo[2,1-f][1,2,4]triazin-4-yl)-2-methylbenzyl)-1,2,4-oxadiazole-3-carboxamide] | < 100 nM
Cc1cc(-c2ncnn3cc(N4CCN(C(=O)CC(C)(C)CNC(=O)c5ccc(OC6CCC(=O)NC6=O)cc5)CC4)cc23)ccc1CNC(=O)c1noc(C(C)(C)C)n1 (centres unmarked) [Example 192, 5-(tert-butyl)-N-(4-(6-(4-(4-(4-((2,6-dioxopiperidin-3-yl)oxy)benzamido)-3,3-dimethylbutanoyl)piperazin-1-yl)pyrrolo[2,1-f][1,2,4]triazin-4-yl)-2-methylbenzyl)-1,2,4-oxadiazole-3-carboxamide] | < 100 nM
Cc1cc(-c2ncnn3cc(N4CCN(C(=O)c5ccccc5CNC(=O)c5ccc(OC6CCC(=O)NC6=O)cc5)CC4)cc23)ccc1CNC(=O)c1noc(C(C)(C)C)n1 (centres unmarked) [Example 193, 5-(tert-butyl)-N-(4-(6-(4-(2-((4-((2,6-dioxopiperidin-3-yl)oxy)benzamido)methyl)benzoyl)piperazin-1-yl)pyrrolo[2,1-f][1,2,4]triazin-4-yl)-2-methylbenzyl)-1,2,4-oxadiazole-3-carboxamide] | < 100 nM
Cc1cc(-c2ncnn3cc(-c4ccc(C(=O)Nc5cccc6c5CCN(C5CCC(=O)NC5=O)C6)cc4)cc23)ccc1CNC(=O)c1noc(C(C)(C)C)n1 (centres unmarked) [Example 194, 5-(tert-butyl)-N-(4-(6-(4-((2-(2,6-dioxopiperidin-3-yl)-1,2,3,4-tetrahydroisoquinolin-5-yl)carbamoyl)phenyl)pyrrolo[2,1-f][1,2,4]triazin-4-yl)-2-methylbenzyl)-1,2,4-oxadiazole-3-carboxamide] | < 100 nM
Cc1cc(-c2ncnn3cc(-c4ccc(C(=O)NCCc5cccc(NC6CCC(=O)NC6=O)c5)cc4)cc23)ccc1CNC(=O)c1noc(C(C)(C)C)n1 (centres unmarked) [Example 196] | < 100 nM
Cc1cc(-c2ncnn3cc(-c4ccc(C(=O)NC5CCc6cc(NC7CCC(=O)NC7=O)ccc6C5)cc4)cc23)ccc1CNC(=O)c1noc(C(C)(C)C)n1 (centres unmarked) [Example 197, 5-(tert-butyl)-N-(4-(6-(4-((6-((2,6-dioxopiperidin-3-yl)amino)-1,2,3,4-tetrahydronaphthalen-2-yl)carbamoyl)phenyl)pyrrolo[2,1-f][1,2,4]triazin-4-yl)-2-methylbenzyl)-1,2,4-oxadiazole-3-carboxamide] | < 100 nM
Cc1cc(-c2ncnn3cc(-c4ccc(C(=O)NCCc5ccc(NC6CCC(=O)NC6=O)cc5)cc4)cc23)ccc1CNC(=O)c1noc(C(C)(C)C)n1 (centres unmarked) [Example 198, 5-(tert-butyl)-N-(4-(6-(4-((4-((2,6-dioxopiperidin-3-yl)amino)phenethyl)carbamoyl)phenyl)pyrrolo[2,1-f] [1,2,4]triazin-4-yl)-2-methylbenzyl)-1,2,4-oxadiazole-3-carboxamide] | < 100 nM
Cc1cc(-c2ncnn3cc(-c4ccc(C(=O)N[C@H](C)c5cccc(NC6CCC(=O)NC6=O)c5)cc4)cc23)ccc1CNC(=O)c1noc(C(C)(C)C)n1 (stereo partly drawn) [Example 199, 5-(tert-butyl)-N-(4-(6-(4-(((1R)-1-(3-((2,6-dioxopiperidin-3-yl)amino)phenyl)ethyl)carbamoyl)phenyl)pyrrolo[2,1-f] [1,2,4]triazin-4-yl)-2-methylbenzyl)-1,2,4-oxadiazole-3-carboxamide] | < 100 nM
Cc1cc(-c2ncnn3cc(-c4ccc(CN5CCOC(c6ccc(NC7CCC(=O)NC7=O)cc6)C5)cc4)cc23)ccc1CNC(=O)c1noc(C(C)(C)C)n1 (centres unmarked) [Example 200, 5-(tert-butyl)-N-(4-(6-(4-((2-(4-((2,6-dioxopiperidin-3-yl)amino)phenyl)morpholino)methyl)phenyl)pyrrolo[2,1-f][1,2,4]triazin-4-yl)-2-methylbenzyl)-1,2,4-oxadiazole-3-carboxamide] | < 100 nM
Cc1cc(-c2ncnn3cc(-c4ccc(CN5CCC(Oc6ccc(NC7CCC(=O)NC7=O)cc6)CC5)cc4)cc23)ccc1CNC(=O)c1noc(C(C)(C)C)n1 (centres unmarked) [Example 201, 5-(tert-butyl)-N-(4-(6-(4-((4-(4-((2,6-dioxopiperidin-3-yl)amino)phenoxy)piperidin-1-yl)methyl)phenyl)pyrrolo[2,1-f][1,2,4]triazin-4-yl)-2-methylbenzyl)-1,2,4-oxadiazole-3-carboxamide] | < 100 nM

Results, then the compound that gave them:

DC50 | SMILES
< 100 nM | Cc1cc(-c2ncnn3cc(N4CCN(C(=O)CCC5CCCN5C(=O)c5ccc(OC6CCC(=O)NC6=O)cc5)CC4)cc23)ccc1CNC(=O)c1noc(C(C)(C)C)n1 (centres unmarked) [Example 181, 5-(tert-butyl)-N-(4-(6-(4-(3-(1-(4-((2,6-dioxopiperidin-3-yl)oxy)benzoyl)pyrrolidin-2-y1)propanoyl)piperazin-1-yl)pyrrolo[2,1-f][1,2,4]triazin-4-yl)-2-methylbenzyl)-1,2,4-oxadiazole-3-carboxamide]
< 100 nM | Cc1cc(-c2ncnn3cc(N4CCN(C(=O)CCCCC5CCN(C(=O)c6ccc(OC7CCC(=O)NC7=O)cc6)CC5)CC4)cc23)ccc1CNC(=O)c1noc(C(C)(C)C)n1 (centres unmarked) [Example 182, 5-(tert-butyl)-N-(4-(6-(4-(5-(1-(4-((2,6-dioxopiperidin-3-yl)oxy)benzoyl)piperidin-4-yl)pentanoyl)piperazin-1-yl)pyrrolo[2,1-f][1,2,4]triazin-4-yl)-2-methylbenzyl)-1,2,4-oxadiazole-3-carboxamide]
< 100 nM | Cc1cc(-c2ncnn3cc(N4CCN(C(=O)CCc5ccccc5CNC(=O)c5ccc(OC6CCC(=O)NC6=O)cc5)CC4)cc23)ccc1CNC(=O)c1noc(C(C)(C)C)n1 (centres unmarked) [Example 183, 5-(tert-butyl)-N-(4-(6-(4-(3-(2-((4-((2,6-dioxopiperidin-3-yl)oxy)benzamido)methyl)phenyl)propanoy 1)piperazin-1-yl)pyrrolo[2,1-f][1,2,4]triazin-4-y1)-2-methylbenzyl)-1,2,4-oxadiazole-3-carboxamide]
< 100 nM | Cc1cc(-c2ncnn3cc(N4CCN(C(=O)CCCC5CN(C(=O)c6ccc(OC7CCC(=O)NC7=O)cc6)C5)CC4)cc23)ccc1CNC(=O)c1noc(C(C)(C)C)n1 (centres unmarked) [Example 184, 5-(tert-butyl)-N-(4-(6-(4-(4-(1-(4-((2,6-dioxopiperidin-3-yl)oxy)benzoyl)azetidin-3-yl)butanoyl)piperazin-1-yl)pyrrolo[2,1-f][1,2,4]triazin-4-yl)-2-methylbenzyl)-1,2,4-oxadiazole-3-carboxamide]
< 100 nM | Cc1cc(-c2ncnn3cc(N4CCN(C(=O)CC5CC6(C5)CN(C(=O)c5ccc(OC7CCC(=O)NC7=O)cc5)C6)CC4)cc23)ccc1CNC(=O)c1noc(C(C)(C)C)n1 (centres unmarked) [Example 185, 5-(tert-butyl)-N-(4-(6-(4-(2-(2-(4-((2,6-dioxopiperidin-3-yl)oxy)benzoyl)-2-azaspiro[3.3]heptan-6-yl)acetyl)piperazin-1-yl)pyrrolo[2,1-f][1,2,4]triazin-4-yl)-2-methylbenzyl)-1,2,4-oxadiazole-3-carboxamide]
< 100 nM | Cc1cc(-c2ncnn3cc(N4CCN(C(=O)C5CC6(CCCN6C(=O)c6ccc(OC7CCC(=O)NC7=O)cc6)C5)CC4)cc23)ccc1CNC(=O)c1noc(C(C)(C)C)n1 (centres unmarked) [Example 186, 5-(tert-butyl)-N-(4-(6-(4-(5-(4-((2,6-dioxopiperidin-3-yl)oxy)benzoyl)-5-azaspiro[3.4]octane-2-carbonyl)piperazin-1-yl)pyrrolo[2,1-f][1,2,4]triazin-4-yl)-2-methylbenzyl)-1,2,4-oxadiazole-3-carboxamide]

From patent US20240287076A1, “COMPOUNDS FOR TARGETING DEGRADATION OF BRUTON'S TYROSINE KINASE” (BIOGEN MA INC., priority 2021, published 2024)
